Each structure is given as a SMILES string.

This test deals with T1, GST-Bfl-1 (Homo sapiens, UniProt Q16548).
T1 construct: lacking their C-terminal transmembrane domains (about the last 20 amino acids) (“ΔTM”); made in house; host or cells: XL-1 Blue E. coli, pGEX 4T-1
T1 sequence (Q16548 1-155 limits assumed): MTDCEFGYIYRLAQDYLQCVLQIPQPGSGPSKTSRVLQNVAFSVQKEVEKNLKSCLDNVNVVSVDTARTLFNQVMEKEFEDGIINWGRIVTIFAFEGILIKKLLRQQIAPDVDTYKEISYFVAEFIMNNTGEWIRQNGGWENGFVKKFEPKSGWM
In words: Bfl-1/FITC-Bid BH3 competitive fluorescence polarization assay. The class given is binding. The note with it: primary HTS hits, MLSCN library (PubChem SIDs), Table 5B.
Consider `O=C(N/N=C1\C(=O)c2cccc3cccc1c23)c1ccc(Cl)cc1` [Compound 16953557], for which the “% Activity” value is 68.6% and the FRatio was determined as 0.84.

With `CC(=N)/C(C#N)=C(\O)CSc1nc2ccccc2[nH]1` [Compound 17385704], the “% Activity” value is given as 105.8% and the FRatio was 0.67.

Take `COc1cc(-c2nnc(SCc3cc(=O)oc4cc(O)c(O)cc34)o2)cc(OC)c1OC` [Compound 17385711]: the “% Activity” value came to 68.3% and the FRatio came out at 0.7.

`COc1ccccc1CNC(=O)COC(=O)c1cc(-c2ccco2)nc2ccccc12` [Compound 17385737]: the “% Activity” value is on record as 70.8% and the FRatio was 0.81.

With `N#Cc1ccccc1CN1C(=O)S/C(=C/c2cccn2-c2ccc(C(=O)O)cc2)C1=O` [Compound 17385953], the “% Activity” value worked out at 63.5% and the FRatio stood at 0.75.

`Cn1c(SCC(=O)Nc2ccc3nc(SCC(=O)N4CCCC4)sc3c2)nnc1-c1ccc(N)cc1` [Compound 17386645]: the “% Activity” value amounted to 53.9% and the FRatio is given as 0.79.

As to `COc1cc(CNCCc2c[nH]c3ccccc23)ccc1OCc1ccc(F)cc1` [Compound 17386700], the “% Activity” value is 76.5% and the FRatio was 0.84.

For the compound `CN(CC(=O)Nc1c(Cl)cccc1Cl)C(=O)CCCN1C(=O)c2ccccc2C1=O` [Compound 17388283], the “% Activity” value turned out to be 57.1% and the FRatio came to 0.97.

With `O=[N+]([O-])c1cc(-c2ccc(/C=N/c3nc4ccccn4c3-c3ccco3)o2)ccc1Cl` [Compound 17388349], the “% Activity” value is recorded as 60.5% and the FRatio is 0.99.

With `CCn1c(CSc2nc3ccccc3s2)nnc1SCC(=O)c1ccc(O)c(O)c1` [Compound 17388455], the “% Activity” value worked out at 74.1% and the FRatio is 0.8.

Turning to `CN(C)c1cccc(C(=O)OCc2cc(=O)oc3cc(O)ccc23)c1` [Compound 17388495], the “% Activity” value stood at 71.7% and the FRatio was 1.

On to `C=CCN1C(=O)/C(=C2/C(=O)N(CC(=O)O)c3ccccc32)S/C1=N\c1nccs1` [Compound 17401584], for which the “% Activity” value stood at 131.8% and the FRatio is on record as 0.83.

`Oc1ccc(C2=Nn3c(nnc3-c3ccco3)SC2)cc1O` [Compound 17401638]: the “% Activity” value is reported as 56.6% and the FRatio was 0.82.

`COc1ccc(C2C=C(c3ccc(Br)cc3)Nc3nc(NS(C)(=O)=O)nn32)cc1` (centres unmarked) [Compound 17401655]: the “% Activity” value was 54.6% and the FRatio stood at 1.46.

Take `O=C(CCCCCn1c(=S)[nH]c2ccccc2c1=O)NCc1ccc2c(c1)OCO2` [Compound 17402018]: the “% Activity” value is on record as 52.9% and the FRatio is 1.37.

`O=c1c([N+](=O)[O-])cc(C(F)(F)F)cn1Cc1cccc(Cl)c1` [Compound 17402915]: the “% Activity” value amounted to 89.8% and the FRatio came out at 0.61.

With `O=C1c2ccccc2C(=O)c2c1cccc2N1CCN(CCO)CC1` [Compound 17403435], the “% Activity” value is on record as 56.9% and the FRatio is 1.3.

Consider `Nc1cc2nsnc2cc1Br` [Compound 17407909], for which the “% Activity” value is 58.5% and the FRatio is given as 1.42.

With `O=C(N/N=C/c1ccc(F)cc1)c1cc(-c2ccco2)nc2ccccc12` [Compound 17408998], the “% Activity” value was determined as 84.8% and the FRatio is 0.87.

Take `O=C(COc1ccccc1C(=O)N/N=C/c1ccc(O)c(O)c1)N/N=C/c1ccc(O)c(O)c1` [Compound 17409262]: the “% Activity” value came out at 70.9% and the FRatio is reported as 0.77.

Turning to `Cc1nc(NC(=O)c2ccco2)sc1-c1csc(Nc2ccc(Cl)cc2Cl)n1` [Compound 17410012], the “% Activity” value is 54.4% and the FRatio amounted to 0.7.

With `COC(=O)C1=C(C)N(c2ccccc2)/C(=C/c2cccs2)C1=O` [Compound 17415043], the “% Activity” value is 65.7% and the FRatio came out at 0.53.

For the origin of these results see patent US20090118135A1, “METHODS AND COMPOUNDS FOR REGULATING APOPTOSIS” (The Burnham Institute, priority 2007, published 2009).
